Reference: PubChem BioAssay (NCI)
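Protocol summary: plate cells (96-well), add compound at 5 concentrations, incubate 48 h, interpolate endpoints linearly. GI50 marks 50% less growth. TGI is the concentration that stops growth completely.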

Assays:
Test in all cases: NCI tumour cell line growth inhibition, 48 h
[1] = tested on: U251 CNS
[2] = tested on: RXF 393 renal
[3] = tested on: SF-295 CNS
[4] = tested on: HT29 colon
[5] = tested on: SR leukemia
[6] = tested on: HOP-92 NSCLC
[7] = tested on: NCI/ADR-RES ovarian
[8] = tested on: EKVX NSCLC
[9] = tested on: CCRF-CEM leukemia
[10] = tested on: HCT-15 colon
[11] = tested on: OVCAR-4 ovarian
[12] = tested on: MCF7 breast
[13] = tested on: ACHN renal
[14] = tested on: SNB-75 CNS
[15] = tested on: UACC-257 melanoma
[16] = tested on: IGROV1 ovarian
[17] = tested on: RPMI-8226 leukemia
[18] = tested on: MOLT-4 leukemia
[19] = tested on: NCI-H226 lung
[20] = tested on: KM12 colon
[21] = tested on: HL-60(TB) leukemia
[22] = tested on: SF-268 CNS
[23] = tested on: SK-MEL-5 melanoma
[24] = tested on: DU-145 prostate
[25] = tested on: M14 melanoma
[26] = tested on: HS 578T breast
[27] = tested on: SN12C renal
[28] = tested on: LOX IMVI melanoma
[29] = tested on: SW-620 colon
[30] = tested on: COLO 205 colon
[31] = tested on: UACC-62 melanoma
[32] = tested on: SNB-19 CNS
[33] = tested on: HCC-2998 colon
[34] = tested on: K-562 leukemia
[35] = tested on: BT-549 breast
[36] = tested on: A549 NSCLC
[37] = tested on: 786-0 renal
[38] = tested on: MALME-3M melanoma
[39] = tested on: NCI-H23 lung
[40] = tested on: SK-OV-3 ovarian
[41] = tested on: OVCAR-3 ovarian
[42] = tested on: NCI-H460 lung
[43] = tested on: MDA-MB-231 breast
[44] = tested on: NCI-H522 lung
[45] = tested on: T-47D breast
[46] = tested on: HCT-116 colon
[47] = tested on: SK-MEL-28 melanoma
[48] = tested on: TK-10 renal
[49] = tested on: SF-539 CNS
[50] = tested on: A498 renal
[51] = tested on: OVCAR-8 ovarian
[52] = tested on: MDA-MB-435
[53] = tested on: HOP-62 NSCLC
[54] = tested on: SK-MEL-2 melanoma
[55] = tested on: UO-31 renal
[56] = tested on: OVCAR-5 ovarian
[57] = tested on: PC-3 prostate

Question: Which results are given for CC1=C[C@H]2O[C@@H]3C[C@H]4OC(=O)/C=C\C=C\[C@H]([C@@H](C)O)OCC/C(C)=C/C(=O)OC[C@@]2(CC1)[C@]4(C)[C@]31CO1?
Answer: GI50 [1]: 4.43 nM; TGI [1]: 26.4 nM; GI50 [2]: 4.37 nM; TGI [2]: 18.6 nM; GI50 [3]: 8.91 nM; TGI [3]: 34.9 nM; GI50 [4]: 4.26 nM; TGI [4]: 18.8 nM; GI50 [5]: 4.05 nM; TGI [5]: 11.1 nM; GI50 [6]: 11.6 nM; TGI [6]: 84.3 nM; GI50 [7]: 10.8 nM; TGI [7]: 98.9 nM; GI50 [8]: 7.64 nM; TGI [8]: 52.4 nM; GI50 [9]: 4.25 nM; TGI [9]: 14300 nM; GI50 [10]: 3.71 nM; TGI [10]: 23.6 nM; GI50 [11]: 7.24 nM; TGI [11]: 69.9 nM; GI50 [12]: 2.76 nM; TGI [12]: 18.9 nM; GI50 [13]: 8.52 nM; TGI [13]: 65 nM; GI50 [14]: 8.15 nM; TGI [14]: 24.7 nM; GI50 [15]: 11.2 nM; TGI [15]: 37.9 nM; GI50 [16]: 4.4 nM; TGI [16]: 41.7 nM; GI50 [17]: 3.82 nM; TGI [17]: 10.4 nM; GI50 [18]: 2.38 nM; TGI [18]: 469 nM; GI50 [19]: 3.23 nM; TGI [19]: 17.7 nM; GI50 [20]: 6.25 nM; TGI [20]: 132 nM; GI50 [21]: 2.39 nM; TGI [21]: 6.84 nM; GI50 [22]: 10.6 nM; TGI [22]: 41.1 nM; GI50 [23]: 2.58 nM; TGI [23]: 7.77 nM; GI50 [24]: 4.11 nM; TGI [24]: 13.9 nM; GI50 [25]: 2.78 nM; TGI [25]: 6.22 nM; GI50 [26]: 7.34 nM; TGI [26]: 29.8 nM; GI50 [27]: 12 nM; TGI [27]: 74.2 nM; GI50 [28]: 2.77 nM; TGI [28]: 10.6 nM; GI50 [29]: 8.1 nM; TGI [29]: 49.1 nM; GI50 [30]: 7.33 nM; TGI [30]: 18.9 nM; GI50 [31]: 6.99 nM; TGI [31]: 23.5 nM; GI50 [32]: 4.14 nM; TGI [32]: 26.1 nM; GI50 [33]: 3.47 nM; TGI [33]: 12.1 nM; GI50 [34]: 2.92 nM; TGI [34]: 14300 nM; GI50 [35]: 3.87 nM; TGI [35]: 10.8 nM; GI50 [36]: 5.26 nM; TGI [36]: 32.9 nM; GI50 [37]: 3.93 nM; TGI [37]: 24.9 nM; GI50 [38]: 3.23 nM; TGI [38]: 11.2 nM; GI50 [39]: 6.14 nM; TGI [39]: 27 nM; GI50 [40]: 6.89 nM; TGI [40]: 27.9 nM; GI50 [41]: 4.4 nM; TGI [41]: 34 nM; GI50 [42]: 2.46 nM; TGI [42]: 6.92 nM; GI50 [43]: 17.4 nM; TGI [43]: 77.5 nM; GI50 [44]: 2.63 nM; TGI [44]: 10.6 nM; GI50 [45]: 8.31 nM; TGI [45]: 28.8 nM; GI50 [46]: 2.37 nM; TGI [46]: 8.21 nM; GI50 [47]: 5.3 nM; TGI [47]: 22.5 nM; GI50 [48]: 9.23 nM; TGI [48]: 39.5 nM; GI50 [49]: 3.65 nM; TGI [49]: 11.5 nM; GI50 [50]: 5.33 nM; TGI [50]: 14.1 nM; GI50 [51]: 9.15 nM; TGI [51]: 45.3 nM; GI50 [52]: 7.94 nM; TGI [52]: 31.9 nM; GI50 [53]: 6.42 nM; TGI [53]: 26.3 nM; GI50 [54]: 12.4 nM; TGI [54]: 42.9 nM; GI50 [55]: 5.43 nM; TGI [55]: 33.5 nM; GI50 [56]: 12 nM; TGI [56]: 67.9 nM; GI50 [57]: 6.63 nM; TGI [57]: 116 nM
